From ChEMBL document CHEMBL1142573, “Suaveolindole, a new mass-limited antibacterial indolosesquiterpene from Greenwayodendron suaveolens obtained via high-throughput natural products chemistry methods” (2005)
In brackets after ≈: the same amount, converted by molar mass.

Columns and labels:
Type in all cases: functional
Klebsiella pneumoniae = assay: Antimicrobial activity against Klebsiella pneumoniae ATCC 10031
Staphylococcus aureus [1] = assay: Antimicrobial activity against Staphylococcus aureus ATTC 6538P
Staphylococcus aureus [2] = assay: Antimicrobial activity against methicillin-resistant Staphylococcus aureus ATTC 33591
Pseudomonas aeruginosa = assay: Antimicrobial activity against Pseudomonas aeruginosa ATCC 9027
Enterococcus faecalis = assay: Antimicrobial activity against vancomycin-resistant Enterococcus faecalis VRE ATCC 51575
Bacillus subtilis = assay: Antimicrobial activity against Bacillus subtilis ATCC 43223

Question: Which MIC (Klebsiella pneumoniae) does the source give for `CC(C)=C1CC[C@@H](C)[C@@](C)(Cc2c[nH]c3ccccc23)[C@@H]1CCC(=O)O` [SUAVEOLINDOLE] here?
Answer: Its MIC is > 128 mg/L.

Question: And the MIC (Staphylococcus aureus [1])?
Answer: Its MIC is 8 mg/L (≈ 22.6 µM).

Question: And the MIC (Staphylococcus aureus [2])?
Answer: Its MIC is 8 mg/L (≈ 22.6 µM).

Question: And the MIC (Pseudomonas aeruginosa)?
Answer: The MIC was > 128 mg/L.

Question: What about the MIC (Enterococcus faecalis) of the same compound?
Answer: Its MIC is > 32 mg/L.

Question: And the MIC (Bacillus subtilis)?
Answer: The MIC was 4 mg/L (≈ 11.3 µM).
